Measurements from US11702404B2, “GLP-1R modulating compounds” (priority 2019, dated 2023).
pEC50: −log10 of the molar value. Where two headings read alike, the source gives them in different places.

How the values were obtained:
GLP-1R = GLP-1R (Homo sapiens, UniProt P43220); assay: GLP-1R activation: cAMP increase in CHO cells stably expressing GLP-1R; assay type: cell-based; settings: read-out: EC50
[1] = Microsomal stability, human liver microsomes (predicted hepatic clearance); settings: predicted from in vitro microsomal stability data
[2] = cAMP increase, CHO cells stably expressing GLP-1R, 10 point dose response, 30 minutes incubation

GLP-1R, sequence (P43220 24-463): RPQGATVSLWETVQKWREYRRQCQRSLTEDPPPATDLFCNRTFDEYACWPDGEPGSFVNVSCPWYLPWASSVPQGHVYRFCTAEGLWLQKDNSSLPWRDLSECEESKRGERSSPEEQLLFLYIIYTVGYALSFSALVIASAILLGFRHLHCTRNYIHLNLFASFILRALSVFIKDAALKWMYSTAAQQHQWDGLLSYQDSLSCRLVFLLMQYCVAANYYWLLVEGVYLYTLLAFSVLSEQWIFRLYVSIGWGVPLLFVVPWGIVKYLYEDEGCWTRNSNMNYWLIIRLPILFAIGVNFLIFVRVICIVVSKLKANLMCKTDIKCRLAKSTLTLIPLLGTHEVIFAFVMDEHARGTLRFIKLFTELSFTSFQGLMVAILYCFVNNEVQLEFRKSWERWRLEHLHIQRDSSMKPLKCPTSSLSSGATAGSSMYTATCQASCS

COCCn1c(Cc2ccc(-c3ccnc(OCc4ccc(C#N)cc4OC)n3)cc2F)nc2ccc(C(=O)O)cc21 [Example 112, 2-(4-(2-((4-cyano-2-methoxybenzyl)oxy)pyrimidin-4-yl)-2-fluorobenzyl)-1-(2-methoxyethyl)-1H-benzo[d]imidazole-6-carboxylic acid]
pEC50 (GLP-1R; [2]): 8.42 | Predicted Hepatic Clearance (Pred. Cl.) [1]: 9.17 mL/min/kg

N#Cc1ccc(COc2cccc(-c3cc(F)c(Cc4nc5ccc(C(=O)O)cc5n4[C@H]4COC[C@H]4F)cc3F)n2)c(F)c1 [Example 611]
pEC50 (GLP-1R; [2]): 9.54 | Predicted Hepatic Clearance (Pred. Cl.) [1]: 4.83 mL/min/kg

COCCn1c(Cc2cc(F)c(-c3cccc(OCc4cccc(-c5ncccn5)c4)n3)cc2F)nc2ccc(C(=O)O)cc21 [Example 909]
pEC50 (GLP-1R; [2]): 8.65 | Predicted Hepatic Clearance (Pred. Cl.) [1]: 3.67 mL/min/kg

O=C(O)c1ccc2nc(Cc3cc(F)c(-c4cccc(OCc5ccc(C(F)(F)F)cc5F)n4)cc3F)n(C[C@@H]3CCO3)c2c1 [Example 665]
pEC50 (GLP-1R; [2]): 9.29 | Predicted Hepatic Clearance (Pred. Cl.) [1]: 1.83 mL/min/kg

N#Cc1ccc(COc2cccc(-c3cc(F)c(Cc4nc5ccc(C(=O)O)cc5n4CC4(F)CC4)cc3F)n2)c(F)c1 [Example 729]
pEC50 (GLP-1R; [2]): 8.99 | Predicted Hepatic Clearance (Pred. Cl.) [1]: 1.83 mL/min/kg

COCCn1c(Cc2cc(F)c(-c3cccc(OCc4ccc(C(N)=O)cc4F)n3)cc2F)nc2ccc(C(=O)O)cc21 [Example 554, 2-(4-(6-((4-carbamoyl-2-fluorobenzyl)oxy)pyridin-2-yl)-2,5-difluorobenzyl)-1-(2-methoxyethyl)-1H-benzo[d]imidazole-6-carboxylic acid]
pEC50 (GLP-1R; [2]): 7.32 | Predicted Hepatic Clearance (Pred. Cl.) [1]: 4.17 mL/min/kg

N#Cc1ccc(COc2cccc(-c3cc(F)c(Cc4nc5ccc(C(=O)O)cc5n4CCNc4ccccc4)cc3F)n2)c(F)c1 [Example 895]
pEC50 (GLP-1R): 7.10 | Predicted Hepatic Clearance (Pred. Cl.) [1]: 8 mL/min/kg

COCCn1c(Cc2cc(F)c(-c3cccc(OCc4cccc5c4COC5)n3)cc2F)nc2ccc(C(=O)O)cc21 [Example 873]
pEC50 (GLP-1R; [2]): 7.08 | Predicted Hepatic Clearance (Pred. Cl.) [1]: 12.2 mL/min/kg

N#Cc1ccc(COc2nccc(-c3ccc(Cc4nc5c(F)cc(C(=O)O)cc5n4C[C@@H]4CCO4)c(F)c3)n2)c(F)c1 [Example 406, (S)-2-(4-(2-((4-cyano-2-fluorobenzyl)oxy)pyrimidin-4-yl)-2-fluorobenzyl)-4-fluoro-1-(oxetan-2-ylmethyl)-1H-benzo[d]imidazole-6-carboxylic acid]
pEC50 (GLP-1R; [2]): 9.74 | Predicted Hepatic Clearance (Pred. Cl.) [1]: 3.83 mL/min/kg

COCCn1c(Cc2ccc(-c3cccc(OCc4ccc(C#N)cc4F)n3)cc2F)nc2cc(C(=O)O)ccc21 [Example 553, 2-(4-(6-((4-cyano-2-fluorobenzyl)oxy)pyridin-2-yl)-2-fluorobenzyl)-1-(2-methoxyethyl)-1H-benzo[d]imidazole-5-carboxylic acid]
pEC50 (GLP-1R; [2]): 7.70 | Predicted Hepatic Clearance (Pred. Cl.) [1]: 4.17 mL/min/kg

N#Cc1ccc(COc2cccc(-c3ccc(Cc4nc5ccc(C(=O)O)cc5n4Cc4ncco4)nc3)n2)c(F)c1 [Example 601, 2-((6-((4-cyano-2-fluorobenzyl)oxy)-[2,3′-bipyridin]-6′-yl)methyl)-1-(oxazol-2-ylmethyl)-1H-benzo[d]imidazole-6-carboxylic acid]
pEC50 (GLP-1R; [2]): 7.50 | Predicted Hepatic Clearance (Pred. Cl.) [1]: 3.83 mL/min/kg

N#CCC1(Cn2c(Cc3cc(F)c(-c4cccc(OCc5ccc(C(F)F)cc5F)n4)cc3F)nc3ccc(C(=O)O)cc32)CC1 [Example 718]
pEC50 (GLP-1R; [2]): 10.30 | Predicted Hepatic Clearance (Pred. Cl.) [1]: 1.83 mL/min/kg

Cc1csc(NCCn2c(Cc3cc(F)c(-c4ccnc(OCc5ccc(C#N)cc5F)n4)cc3F)nc3ccc(C(=O)O)cc32)n1 [Example 832]
pEC50 (GLP-1R): 5.63 | Predicted Hepatic Clearance (Pred. Cl.) [1]: 14.3 mL/min/kg

COCCn1c(Cc2ccc(-c3cccc(OCc4cccnc4[N+](=O)[O-])n3)cc2F)nc2ccc(C(=O)O)cc21 [Example 596, 2-(2-fluoro-4-(6-((2-nitropyridin-3-yl)methoxy)pyridin-2-yl)benzyl)-1-(2-methoxyethyl)-1H-benzo[d]imidazole-6-carboxylic acid]
pEC50 (GLP-1R; [2]): 6.09 | Predicted Hepatic Clearance (Pred. Cl.) [1]: 19.5 mL/min/kg

COc1cc(C#N)ccc1COc1nccc(-c2ccc(Cc3nc4ccc(C(=O)O)nc4n3CC3(CF)CC3)cc2F)n1 [Example 322, 2-(4-(2-((4-cyano-2-methoxybenzyl)oxy)pyrimidin-4-yl)-3-fluorobenzyl)-3-((1-(fluoromethyl)cyclopropyl)methyl)-3H-imidazo[4,5-b]pyridine-5-carboxylic acid]
pEC50 (GLP-1R; [2]): 9.24 | Predicted Hepatic Clearance (Pred. Cl.) [1]: 12.3 mL/min/kg

N#CCC1(Cn2c(Cc3ccc(-c4ccnc(OCc5ccc(Cl)cc5F)n4)cc3F)nc3ccc(C(=O)O)cc32)CC1 [Example 79, 2-(4-(2-((4-chloro-2-fluorobenzyl)oxy)pyrimidin-4-yl)-2-fluorobenzyl)-1-((1-(cyanomethyl)cyclopropyl)methyl)-1H-benzo[d]imidazole-6-carboxylic acid]
pEC50 (GLP-1R; [2]): 8.98 | Predicted Hepatic Clearance (Pred. Cl.) [1]: 8.83 mL/min/kg

N#Cc1ccc(COc2cccc(-c3cc(F)c(Cc4nc5ccc(C(=O)O)cc5n4CC45CCC(CO4)C5)cc3F)n2)c(F)c1 (centres unmarked) [Example 738]
pEC50 (GLP-1R; [2]): 8.73 | Predicted Hepatic Clearance (Pred. Cl.) [1]: 9.33 mL/min/kg

COCCn1c(Cc2ccc(-c3cccc(OCc4cnc(Cl)s4)n3)cc2F)nc2ccc(C(=O)O)cc21 [Example 593, 2-(4-(6-((2-chlorothiazol-5-yl)methoxy)pyridin-2-yl)-2-fluorobenzyl)-1-(2-methoxyethyl)-1H-benzo[d]imidazole-6-carboxylic acid]
pEC50 (GLP-1R; [2]): 6.84 | Predicted Hepatic Clearance (Pred. Cl.) [1]: 8.3 mL/min/kg

N#Cc1ccc(COc2cccc(-c3ccn(Cc4nc5ccc(C(=O)O)cc5n4C[C@@H]4CCO4)c(=O)c3)n2)c(F)c1 [Example 423, (S)-2-((6-((4-cyano-2-fluorobenzyl)oxy)-2′-oxo-[2,4′-bipyridin]-1′(2′H)-yl)methyl)-1-(oxetan-2-ylmethyl)-1H-benzo[d]imidazole-6-carboxylic acid]
pEC50 (GLP-1R; [2]): 8.39 | Predicted Hepatic Clearance (Pred. Cl.) [1]: <1.83 mL/min/kg

COCCn1c(Cc2cnn(-c3cccc(OCc4ccc(C#N)cc4F)n3)c2)nc2ccc(C(=O)O)cc21 [Example 107, 2-[[1-[6-[(4-cyano-2-fluoro-phenyl)methoxy]-2-pyridyl]pyrazol-4-yl]methyl]-3-(2-methoxyethyl)benzimidazole-5-carboxylic acid]
pEC50 (GLP-1R; [2]): 5.44 | Predicted Hepatic Clearance (Pred. Cl.) [1]: 13.8 mL/min/kg

COCCn1c(Cc2ccc(-c3nc(OCc4ccc(C#N)cc4F)ccc3Cl)cc2F)nc2ccc(C(=O)O)cc21 [Example 115, 2-[[4-[3-chloro-6-[(4-cyano-2-fluoro-phenyl)methoxy]-2-pyridyl]-2-fluoro-phenyl]methyl]-3-(2-methoxyethyl)benzimidazole-5-carboxylic acid]
pEC50 (GLP-1R; [2]): 7.09 | Predicted Hepatic Clearance (Pred. Cl.) [1]: 8.3 mL/min/kg

CC1(C)CC[C@@H](Cn2c(Cc3cc(F)c(-c4cccc(OCc5ccc(C#N)cc5F)n4)cc3F)nc3ccc(C(=O)O)cc32)O1 (racemic) [Example 549, 2-(4-(6-((4-cyano-2-fluorobenzyl)oxy)pyridin-2-yl)-2,5-difluorobenzyl)-1-((5,5-dimethyltetrahydrofuran-2-yl)methyl)-1H-benzo[d]imidazole-6-carboxylic acid]
pEC50 (GLP-1R; [2]): 7.34 | Predicted Hepatic Clearance (Pred. Cl.) [1]: 12 mL/min/kg
